# Test system: 422866-222-R5-J1-PDC complex spheroid viability
# Experiment: Anticancer human tumor 422866-222-R5-J1-PDC patient-derived pancreatic adenocarcinoma cell line growth inhibition [POLQ]
# Conditions: for IC50: curve of first compound; for viability, T/C: stronger effect = lower value
# In short: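 Complex spheroid viability model combining PDC tumour cells with endothelial (HUVEC) and MSC stromal cells. Novobiocin, ART-558 or RP6685 were tested singly and in combination with standard and investigational anticancer drugs. Each was titrated in half-log steps from near clinical Cmax, or from 10 microM where Cmax was unknown.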
# [1] = second compound 0.0316 µM, first compound 0.0316 µM
# [2] = second compound 0.0316 µM, first compound 0.1 µM
# [3] = second compound 0.0316 µM, first compound 0.316 µM
# [4] = second compound 0.0316 µM, first compound 1 µM
# [5] = second compound 0.0316 µM, first compound 3.16 µM
# [6] = second compound 0.0316 µM, first compound 10 µM
# [7] = second compound 0.1 µM, first compound 0.0316 µM
# [8] = second compound 0.1 µM, first compound 0.1 µM
# [9] = second compound 0.1 µM, first compound 0.316 µM
# [10] = second compound 0.1 µM, first compound 1 µM
# [11] = second compound 0.1 µM, first compound 3.16 µM
# [12] = second compound 0.1 µM, first compound 10 µM
# [13] = second compound 0.316 µM, first compound 0.0316 µM
# [14] = second compound 0.316 µM, first compound 0.1 µM
# [15] = second compound 0.316 µM, first compound 0.316 µM
# [16] = second compound 0.316 µM, first compound 1 µM
# [17] = second compound 0.316 µM, first compound 3.16 µM
# [18] = second compound 0.316 µM, first compound 10 µM
# [19] = second compound 1 µM, first compound 0.0316 µM
# [20] = second compound 1 µM, first compound 0.1 µM
# [21] = second compound 1 µM, first compound 0.316 µM
# [22] = second compound 1 µM, first compound 1 µM
# [23] = second compound 1 µM, first compound 3.16 µM
# [24] = second compound 1 µM, first compound 10 µM
# [25] = second compound 3.16 µM, first compound 0.0316 µM
# [26] = second compound 3.16 µM, first compound 0.1 µM
# [27] = second compound 3.16 µM, first compound 0.316 µM
# [28] = second compound 3.16 µM, first compound 1 µM
# [29] = second compound 3.16 µM, first compound 3.16 µM
# [30] = second compound 3.16 µM, first compound 10 µM
# [31] = second compound 10 µM, first compound 0.0316 µM
# [32] = second compound 10 µM, first compound 0.1 µM
# [33] = second compound 10 µM, first compound 0.316 µM
# [34] = second compound 10 µM, first compound 1 µM
# [35] = second compound 10 µM, first compound 3.16 µM
# [36] = second compound 10 µM, first compound 10 µM
# 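Also: spheroids exposed to compounds for one week before readout.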
# 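For viability, T/C in this document: percent of DMSO vehicle wells luminescence so 100% = untreated viability.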
smiles,measurement,setting,value
COc1ccc([C@@H](O)c2cc(-c3ncnc4cc(N5CCOCC5)ccc34)c(F)cc2Cl)nn1 + Nc1ccc(C#CCN(C(=O)Cc2ncc(C(F)(F)F)cc2C(F)(F)F)c2ccc(F)cc2)nn1,IC50,second compound 0.0316 µM,1.51 µM
same,IC50,second compound 0.1 µM,2.57 µM
same,IC50,second compound 0.316 µM,2.74 µM
same,IC50,second compound 1 µM,1.93 µM
same,IC50,second compound 3.16 µM,1.28 µM
same,IC50,second compound 10 µM,1.59 µM
same,"viability, T/C",[1],81.2%
same,"viability, T/C",[2],89.7%
same,"viability, T/C",[3],70.9%
same,"viability, T/C",[4],55.3%
same,"viability, T/C",[5],42.4%
same,"viability, T/C",[6],34.8%
same,"viability, T/C",[7],104%
same,"viability, T/C",[8],81.8%
same,"viability, T/C",[9],75.1%
same,"viability, T/C",[10],59.8%
same,"viability, T/C",[11],46.2%
same,"viability, T/C",[12],39.2%
same,"viability, T/C",[13],110%
same,"viability, T/C",[14],88.5%
same,"viability, T/C",[15],73.1%
same,"viability, T/C",[16],70.6%
same,"viability, T/C",[17],46.2%
same,"viability, T/C",[18],33.1%
same,"viability, T/C",[19],94.2%
same,"viability, T/C",[20],87.4%
same,"viability, T/C",[21],79.8%
same,"viability, T/C",[22],62.6%
same,"viability, T/C",[23],40.2%
same,"viability, T/C",[24],29.4%
same,"viability, T/C",[25],95.9%
same,"viability, T/C",[26],89.9%
same,"viability, T/C",[27],72.9%
same,"viability, T/C",[28],49.1%
same,"viability, T/C",[29],47.6%
same,"viability, T/C",[30],34.6%
same,"viability, T/C",[31],110%
same,"viability, T/C",[32],100%
same,"viability, T/C",[33],82.5%
same,"viability, T/C",[34],60.3%
same,"viability, T/C",[35],35.1%
same,"viability, T/C",[36],31.4%
CC1COCCN1c1cc(-c2ccnn2C)c2ccnc(-c3ccn[nH]3)c2n1 (stereo not drawn) + COC1C(OC(N)=O)C(O)C(Oc2ccc3c(O)c(NC(=O)c4ccc(O)c(CC=C(C)C)c4)c(=O)oc3c2C)OC1(C)C,IC50,second compound 0.0316 µM,> 10 µM
same,IC50,second compound 0.1 µM,> 10 µM
same,IC50,second compound 0.316 µM,> 10 µM
same,IC50,second compound 1 µM,> 10 µM
same,IC50,second compound 3.16 µM,> 10 µM
same,IC50,second compound 10 µM,> 10 µM
same,"viability, T/C",[1],87.7%
same,"viability, T/C",[2],62%
same,"viability, T/C",[3],42.2%
same,"viability, T/C",[4],40%
same,"viability, T/C",[5],85.1%
same,"viability, T/C",[6],67.3%
same,"viability, T/C",[7],90.1%
same,"viability, T/C",[8],52.9%
same,"viability, T/C",[9],39.8%
same,"viability, T/C",[10],46.1%
same,"viability, T/C",[11],87.3%
same,"viability, T/C",[12],79.7%
same,"viability, T/C",[13],96.5%
same,"viability, T/C",[14],51.9%
same,"viability, T/C",[15],35.3%
same,"viability, T/C",[16],39%
same,"viability, T/C",[17],88.5%
same,"viability, T/C",[18],77%
same,"viability, T/C",[19],77.5%
same,"viability, T/C",[20],58.1%
same,"viability, T/C",[21],43.3%
same,"viability, T/C",[22],34.5%
same,"viability, T/C",[23],77.9%
same,"viability, T/C",[24],63.5%
same,"viability, T/C",[25],82.6%
same,"viability, T/C",[26],64.6%
same,"viability, T/C",[27],39.9%
same,"viability, T/C",[28],32%
same,"viability, T/C",[29],88.1%
same,"viability, T/C",[30],78.4%
same,"viability, T/C",[31],82.7%
same,"viability, T/C",[32],55.2%
same,"viability, T/C",[33],46.2%
same,"viability, T/C",[34],33.2%
same,"viability, T/C",[35],81.1%
same,"viability, T/C",[36],71.7%
CCCS(=O)(=O)Nc1ccc(F)c(C(=O)c2c[nH]c3ncc(-c4ccc(Cl)cc4)cc23)c1F + COC1C(OC(N)=O)C(O)C(Oc2ccc3c(O)c(NC(=O)c4ccc(O)c(CC=C(C)C)c4)c(=O)oc3c2C)OC1(C)C,IC50,second compound 0.0316 µM,> 10 µM
same,IC50,second compound 0.1 µM,> 10 µM
same,IC50,second compound 0.316 µM,> 10 µM
same,IC50,second compound 1 µM,> 10 µM
same,IC50,second compound 3.16 µM,> 10 µM
same,IC50,second compound 10 µM,> 10 µM
same,"viability, T/C",[1],96.1%
same,"viability, T/C",[2],129%
same,"viability, T/C",[3],132%
same,"viability, T/C",[4],162%
same,"viability, T/C",[5],236%
same,"viability, T/C",[6],99%
same,"viability, T/C",[7],119%
same,"viability, T/C",[8],118%
same,"viability, T/C",[9],143%
same,"viability, T/C",[10],149%
same,"viability, T/C",[11],198%
same,"viability, T/C",[12],86.6%
same,"viability, T/C",[13],98.2%
same,"viability, T/C",[14],97.8%
same,"viability, T/C",[15],129%
same,"viability, T/C",[16],177%
same,"viability, T/C",[17],173%
same,"viability, T/C",[18],107%
same,"viability, T/C",[19],101%
same,"viability, T/C",[20],114%
same,"viability, T/C",[21],129%
same,"viability, T/C",[22],167%
same,"viability, T/C",[23],217%
same,"viability, T/C",[24],90.6%
same,"viability, T/C",[25],101%
same,"viability, T/C",[26],115%
same,"viability, T/C",[27],129%
same,"viability, T/C",[28],173%
same,"viability, T/C",[29],195%
same,"viability, T/C",[30],111%
same,"viability, T/C",[31],93.9%
same,"viability, T/C",[32],121%
same,"viability, T/C",[33],145%
same,"viability, T/C",[34],161%
same,"viability, T/C",[35],198%
same,"viability, T/C",[36],93.4%
O=C(Nc1ccc(O)c(NS(=O)(=O)c2ccc(F)cc2)c1)c1ccc(-c2ccccc2)cc1 + Cc1cccc(N(C)C(=O)C2C(O)CCN2c2nc(C)cc(C(F)(F)F)c2C#N)c1,IC50,second compound 0.0316 µM,> 10 µM
same,IC50,second compound 0.1 µM,> 10 µM
same,IC50,second compound 0.316 µM,> 10 µM
same,IC50,second compound 1 µM,> 10 µM
same,IC50,second compound 3.16 µM,> 10 µM
same,IC50,second compound 10 µM,> 10 µM
same,"viability, T/C",[1],94.2%
same,"viability, T/C",[2],89.3%
same,"viability, T/C",[3],73.9%
same,"viability, T/C",[4],89.3%
same,"viability, T/C",[5],99.8%
same,"viability, T/C",[6],121%
same,"viability, T/C",[7],85.4%
same,"viability, T/C",[8],89.8%
same,"viability, T/C",[9],89%
same,"viability, T/C",[10],91.3%
same,"viability, T/C",[11],95.5%
same,"viability, T/C",[12],116%
same,"viability, T/C",[13],94.3%
same,"viability, T/C",[14],99%
same,"viability, T/C",[15],90.9%
same,"viability, T/C",[16],101%
same,"viability, T/C",[17],90.7%
same,"viability, T/C",[18],106%
same,"viability, T/C",[19],96%
same,"viability, T/C",[20],94.5%
same,"viability, T/C",[21],99.2%
same,"viability, T/C",[22],88.9%
same,"viability, T/C",[23],86.3%
same,"viability, T/C",[24],113%
same,"viability, T/C",[25],97.2%
same,"viability, T/C",[26],91.8%
same,"viability, T/C",[27],89.2%
same,"viability, T/C",[28],92.9%
same,"viability, T/C",[29],94.2%
same,"viability, T/C",[30],118%
same,"viability, T/C",[31],71.9%
same,"viability, T/C",[32],82.3%
same,"viability, T/C",[33],87.3%
same,"viability, T/C",[34],86.8%
same,"viability, T/C",[35],97.6%
same,"viability, T/C",[36],103%

# — PubChem BioAssay AID1963844 (Molecular Pharmacology Branch, DTP, NCI, 2024)
